Converted amounts (≈) assume the structure as drawn. Like-named read-outs stand apart in the source and are kept apart here.
Columns and labels:
[1] = cited from earlier work
[2] = all measured pH values from pH 4 to pH 9; Britton-Robinson buffer; cited from earlier work
[3] = Solubility studies using micronized glibenclamide: unbuffered 2% sucrose and water; assay type: physicochemical; details: for GLB mg/ml (glibenclamide in solution): 2% sucrose in water; for solubility: aqueous buffer, thermodynamic from solid, water without bulking agent
Description: Micronized glibenclamide in 2% sucrose (as a proxy for glucose, fructose, mannose, galactose, mannitol, sorbitol, lactose, trehalose, and other sugars, including mono-saccharides, di-saccharides) in water was prepared, as recorded in the left-hand column of Table 4. In addition, micronized glibenclamide was prepared in water without a bulking agent (see Table 4, right column). These were unbuffered solutions, so that 1) pH was adjusted to the target value, then 2) glibenclamide was added (which lowered the pH) and then 3) pH was re-adjusted up to the target. This was done iteratively until the pH was stable.

[4] = Solubility studies using micronized glibenclamide: unbuffered saline; assay type: physicochemical; details: thermodynamic from solid
Text: This was done iteratively until pH was stable. “GLB” indicates glibenclamide.

[5] = 0.1 M, pH 10 phosphate-buffered aqueous solution (300 mOsm/L); cited from earlier work
[6] = Solubility of glibenclamide in buffered water solutions (Britton Robinson); assay type: physicochemical
Text: Buffered water solutions (Britton Robinson buffers) were used to determine the amounts of glibenclamide soluble in buffered solutions without added salt or added sugar.

[7] = Stated physicochemical properties (pKa, water and ethanol solubility); details: 109 mg/L vs. 4 mg/L

COc1ccc(Cl)cc1C(=O)NCCc1ccc(S(=O)(=O)NC(=O)NC2CCCCC2)cc1 [Glibenclamide, 5-chloro-N-[2-[4-(cyclohexylcarbamoylsulfamoyl)phenyl]ethyl]-2-methoxy-benzamide]
ethanol solubility [1]: 5000 µg/mL | solubility [2]: below 1 mg/mL | GLB mg/ml (glibenclamide in solution) ([3]; pH 7.45): 0.051 mg/mL | GLB mg/ml (glibenclamide in solution) ([3]; pH 7.50): 0.099 mg/mL | GLB mg/ml (glibenclamide in solution) ([3]; pH 8.24): 0.310 mg/mL | GLB mg/ml (glibenclamide in solution) ([3]; pH 8.66): 1.069 mg/mL | GLB mg/ml (glibenclamide in solution) ([3]; pH 9.16): 2.608 mg/mL | GLB mg/ml (glibenclamide in solution) ([3]; pH 9.53): 3.060 mg/mL | GLB mg/ml (glibenclamide in solution) ([3]; pH 9.74): 4.103 mg/mL | GLB mg/ml (glibenclamide in solution) ([3]; pH 11.23): 3.811 mg/mL | GLB mg/ml (glibenclamide in solution) ([3]; pH 11.30): 3.416 mg/mL | GLB mg/ml (glibenclamide in solution) ([3]; pH 11.99): 1.904 mg/mL | solubility ([3]; pH 7.36, read-out: GLB mg/ml (glibenclamide in solution)): 0.019 mg/mL (≈ 38.5 µM) | solubility ([3]; pH 7.55, read-out: GLB mg/ml (glibenclamide in solution)): 0.096 mg/mL (≈ 194 µM) | solubility ([3]; pH 8.65, read-out: GLB mg/ml (glibenclamide in solution)): 0.799 mg/mL (≈ 1620 µM) | solubility ([3]; pH 8.73, read-out: GLB mg/ml (glibenclamide in solution)): 0.087 mg/mL (≈ 176 µM) | solubility ([3]; pH 9.13, read-out: GLB mg/ml (glibenclamide in solution)): 0.205 mg/mL (≈ 415 µM) | solubility ([3]; pH 9.57, read-out: GLB mg/ml (glibenclamide in solution)): 3.97 mg/mL (≈ 8030 µM) | solubility ([3]; pH 10.28, read-out: GLB mg/ml (glibenclamide in solution)): 4.87 mg/mL (≈ 9860 µM) | solubility ([3]; pH 11.19, read-out: GLB mg/ml (glibenclamide in solution)): 4.67 mg/mL (≈ 9460 µM) | solubility ([3]; pH 11.44, read-out: GLB mg/ml (glibenclamide in solution)): 4.84 mg/mL (≈ 9800 µM) | solubility ([3]; pH 12.27, read-out: GLB mg/ml (glibenclamide in solution)): 2.51 mg/mL (≈ 5090 µM) | solubility ([4]; 0.9% saline in water, pH 8.07, saline or isotonic, Saline 0.9%, pH 8.070, read-out: GLB mg/ml (glibenclamide in solution)): 0.024 mg/mL (≈ 48.6 µM) | solubility ([4]; 0.9% saline in water, pH 8.44, saline or isotonic, Saline 0.9%, pH 8.440, read-out: GLB mg/ml (glibenclamide in solution)): 0.109 mg/mL (≈ 221 µM) | solubility ([4]; 0.9% saline in water, pH 9.18, saline or isotonic, Saline 0.9%, pH 9.180, read-out: GLB mg/ml (glibenclamide in solution)): 0.435 mg/mL (≈ 881 µM) | solubility ([4]; 0.9% saline in water, pH 9.92, saline or isotonic, Saline 0.9%, pH 9.920, read-out: GLB mg/ml (glibenclamide in solution)): 0.42 mg/mL (≈ 850 µM) | solubility ([4]; 0.9% saline in water, pH 10.48, saline or isotonic, Saline 0.9%, pH 10.480, read-out: GLB mg/ml (glibenclamide in solution)): 0.456 mg/mL (≈ 923 µM) | solubility ([4]; 0.9% saline in water, pH 11.06, saline or isotonic, Saline 0.9%, pH 11.060, read-out: GLB mg/ml (glibenclamide in solution)): 0.445 mg/mL (≈ 901 µM) | solubility ([4]; 0.9% saline in water, pH 11.61, saline or isotonic, Saline 0.9%, pH 11.610, read-out: GLB mg/ml (glibenclamide in solution)): 0.538 mg/mL (≈ 1090 µM) | solubility ([4]; 0.9% saline in water, pH 12.07, saline or isotonic, Saline 0.9%, pH 12.070, read-out: GLB mg/ml (glibenclamide in solution)): 0.476 mg/mL (≈ 964 µM) | solubility ([4]; 2% saline in water, pH 12.1, saline or isotonic, Saline 2%, pH 12.10, read-out: GLB mg/ml (glibenclamide in solution)): 0.216 mg/mL (≈ 437 µM) | solubility ([4]; 2% saline in water, saline or isotonic, Saline 2%, pH 7.24, read-out: GLB mg/ml (glibenclamide in solution)): 0.012 mg/mL (≈ 24.3 µM) | solubility ([4]; 2% saline in water, saline or isotonic, Saline 2%, pH 7.97, read-out: GLB mg/ml (glibenclamide in solution)): 0.028 mg/mL (≈ 56.7 µM) | solubility ([4]; 2% saline in water, saline or isotonic, Saline 2%, pH 8.34, read-out: GLB mg/ml (glibenclamide in solution)): 0.087 mg/mL (≈ 176 µM) | solubility ([4]; 2% saline in water, saline or isotonic, Saline 2%, pH 8.89, read-out: GLB mg/ml (glibenclamide in solution)): 0.214 mg/mL (≈ 433 µM) | solubility ([4]; 2% saline in water, saline or isotonic, Saline 2%, pH 8.94, read-out: GLB mg/ml (glibenclamide in solution)): 0.233 mg/mL (≈ 472 µM) | solubility ([4]; 2% saline in water, saline or isotonic, Saline 2%, pH 9.49, read-out: GLB mg/ml (glibenclamide in solution)): 0.205 mg/mL (≈ 415 µM) | solubility ([4]; 2% saline in water, saline or isotonic, Saline 2%, pH 10.31, read-out: GLB mg/ml (glibenclamide in solution)): 0.215 mg/mL (≈ 435 µM) | solubility ([4]; 2% saline in water, saline or isotonic, Saline 2%, pH 10.98, read-out: GLB mg/ml (glibenclamide in solution)): 0.192 mg/mL (≈ 389 µM) | solubility ([4]; 2% saline in water, saline or isotonic, Saline 2%, pH 11.49, read-out: GLB mg/ml (glibenclamide in solution)): 0.194 mg/mL (≈ 393 µM) | solubility [5]: 500 µg/mL (≈ 1010 µM) | solubility ([6]; Britton Robinson buffer in water, aqueous buffer, pH 9.000, read-out: GLB mg/mL (glibenclamide in solution)): 0.14 mg/mL (≈ 283 µM) | solubility ([6]; Britton Robinson buffer in water, pH 9.7, aqueous buffer, pH 9.700, read-out: GLB mg/mL (glibenclamide in solution)): 0.85 mg/mL (≈ 1720 µM) | solubility ([6]; Britton Robinson buffer, aqueous buffer, pH 5.3, read-out: GLB mg/mL (glibenclamide in solution)): 0.01 mg/mL (≈ 20.2 µM) | solubility ([6]; Britton Robinson buffer, aqueous buffer, pH 8.000, read-out: GLB mg/mL (glibenclamide in solution)): 0.02 mg/mL (≈ 40.5 µM) | solubility ([6]; Britton Robinson buffer, aqueous buffer, pH 8.3, read-out: GLB mg/mL (glibenclamide in solution)): 0.02 mg/mL (≈ 40.5 µM) | solubility ([6]; Britton Robinson buffer, pH 6.2, aqueous buffer, pH 6.200, read-out: GLB mg/mL (glibenclamide in solution)): 0.01 mg/mL (≈ 20.2 µM) | solubility ([6]; Britton Robinson buffer, pH 7.1, aqueous buffer, pH 7.100, read-out: GLB mg/mL (glibenclamide in solution)): 0.01 mg/mL (≈ 20.2 µM) | solubility ([6]; Britton Robinson buffer, pH 10.1, aqueous buffer, pH 10.100, read-out: GLB mg/mL (glibenclamide in solution)): 2.35 mg/mL (≈ 4760 µM)

CCOc1cc(CC(=O)N[C@@H](CC(C)C)c2ccccc2N2CCCCC2)ccc1C(=O)O [Repaglinide]
water solubility ([1]; pH 9): 600 µg/mL (≈ 1330 µM)

CCCCNC(=O)NS(=O)(=O)c1ccc(C)cc1 [Tolbutamide]
water solubility [1]: 109 µg/mL (≈ 403 µM) | times more soluble in water than glibenclamide [7]: 24 times
